Test system: Fusarium graminearum strains resistant to phenamacril
Assay type: cell-based

5-(4-methyl-2-oxo-1-oxaspiro[4,5]-dec-3-en-3-ethylidene)-2-thio-4-thiazolidinone [Compound 3-1]
inhibition rate on resistant strains compared with standard strain (1 mg/L and 0.5 mg/L, resistant strains T10, T2-5, T32, T13, T12 vs standard strain 2021): the same as that of the standard wild-type Fusarium graminearum strain
growth inhibition of all resistant strains (50 mg/L, resistant strains T2-5, T10, T32, T18, T48, T79): completely inhibit the growth of all resistant strains
